# Laboratory results: US20010051181A1, “NOVEL FORMULATIONS FOR THE TRANSDERMAL ADMINISTRATION OF ASIMADOLINE” (priority 1997, published 2001)
# Counter-ions that a name gives are not always drawn.
# Experiment: in vitro skin flux of asimadoline through human cadaver epidermis
# Type: in vitro ADME
# Settings: representative range; depending on the drug form, permeation enhancer, and if an in-line adhesive is present
# Method: Release of asimadoline from transdermal systems into aqueous medium was measured over 24 hours at 35° C. Each system had its exposed edges masked. The systems were then mounted on a Teflon® holder of a release rate rod using nylon mesh and nickel wire. A known volume of receptor solution (50 mM Na2PO4, pH 5.5) was then placed in a test tube and equilibrated at 35° C. The test tube was placed in a water bath and maintained at 35° C. The Teflon rod with attached system was then reciprocated within the test tube by attaching the rod to a motor which caused constant vertical mixing.
# At given time intervals, the entire receptor solution was removed from the test tubes and replaced with an equal volume of fresh receptor solutions previously equilibrated at 35° C. The receptor solutions were stored in capped vials at 4° C. until assayed for asimadoline content by HPLC. From the drug concentration and the volume of the receptor solutions, the area of the system and the time interval, the release rate of the drug from the system was calculated as follows: (drug concentration×volume of receptor)/(area×time)=release rate (μg/cm^2 hr). […]
# Transdermal systems set forth in Table 1 were prepared according to Example 1 and used to measure permeation through human cadaver skin. […] Asimadoline permeation through the epidermis was then measured according to the procedure set forth in Example 1. […]
smiles,measurement,value
"CN(C(=O)C(c1ccccc1)c1ccccc1)[C@H](CN1CC[C@H](O)C1)c1ccccc1 [asimadoline hydrochloride, N-[(aS)-α-[[(3S)-3-Hydroxy-1-pyrrolidinyl]methyl]benzyl]-N-methyl-2,2-diphenylacetamide]",in vitro skin flux through human skin,0.2-10 mg/cm^2·hr
